Measured values published in patent US20240400591A1 (Jacobio Pharmaceuticals Co., Ltd., priority 2021, published 2024).
Where two headings read alike, the source gives them in different places.

Assays:
NUGC3 (P53 Y220C) = experiment: Cell viability assay (CellTiter-Glo, 6 days), NUGC3; assay type: cell-based; conditions: cell viability, 6 days, CellTiter-Glo, read-out: NUGC3 (P53 Y220C) IC50
Protocol: (§1) Cells were collected and counted. A desired number of cells was seeded into 96-well microplate and cultured in 37° C. cell incubator overnight. Compounds dissolved in cell culture medium were added into cell plate and cultured for 6 days. After balancing CellTiter-Glo reagent and cells at room temperature for 30 min, equal volume of CellTiter-Glo reagents was added to assay plate and shaken for 2 min for cell lysis. The cells were balanced at room temperature for 10 minutes and Luminescence signal was read using Envision. The percent of cell viability for compounds treated wells were normalized between High control and low control. Wells containing cell culture medium and same percentage DMSO sewved as Low control. Wells containing cells and same percentage DMSO sewved as High control. Cell viability (%)=(Luminescence readoutCompound treated−Luminescence readoutLow control)/(Luminescence readoutHigh control−Luminescence readoutLow control)*100%. Then the data were analyzed either by fitting a 4-parameter logistic model or by Excel to calculate IC50 values. And the IC50 was the concentration at 50% Cell viability on the curve.

[1] = target: T1, His-p53 Y220C (94-294) protein (Homo sapiens, UniProt P04637, Y220C); experiment: In vitro DNA binding assay (HTRF); assay type: biochemical; conditions: % activation normalized to 2 μM Ref-1a high control
T1 construct: His-p53 Y220C (94-294) protein

[2] = test system: NUGC-3_P53_Luc single clonal cell line (p53 Y220C); experiment: Reporter gene assay (p53 RE luciferase); assay type: cell-based; conditions: luciferase reporter, 6 hours, normalized to Ref-1a (10 μM) high control, read-out: p53(Y220C)_NUGC-3 EC50
Protocol: NUGC-3_P53_Luc single clonal cell line was established using pGL4.38[luc2P/p53 RE/Hygro] Vector (E365A, promega). NUGC-3_P53-Luc single clonal cells were cultured in 37° C. cell incubator before use. NUGC-3-P53-Luc cells were collected and washed twice with PBS to remove phenol red and then resuspended in medium to a proper concentration. Tested compound dilutions were transferred into 384 well assay plates (PerkinElmer). A desired number of cells was seeded into the assay plate and cultured for 6 hours at 37° C. cell incubator. Britelite plus Luciferase Assay Reagent were added into each well and the luminescence value was recorded on Envision. The percent of activity value of compounds treated wells was normalized between high control and low control. Wells containing cells and Ref-1a (10 μM) sewved as high control, and wells containing cells and same percentage of DMSO sewved as low control. Activity value (%)=(Luminescence readoutCompound treated−Luminescence readoutLow control)/(Luminescence readoutHigh control−Luminescence readoutLow control)*100%. Then the data were analyzed either by fitting a 4-parameter logistic model or by Excel to calculate EC50 values and the EC50 was the concentration at 50% Activity on the curve.

NUGC4 (P53 WT) = experiment: Cell viability assay (CellTiter-Glo, 6 days), NUGC4; assay type: cell-based; conditions: cell viability, 6 days, CellTiter-Glo, read-out: NUGC4 (P53 WT) IC50
Protocol: as §1

SMILES | IC50 (NUGC3 (P53 Y220C); Homo sapiens, NUGC-3, 144 h) [nM] | EC50 [1] [nM] | EC50 ([2]; Homo sapiens, NUGC-3, 6 h) [nM] | IC50 (NUGC4 (P53 WT); Homo sapiens, NUGC-4, 144 h) [µM] | IC50 (NUGC3 (P53 Y220C)) [nM] | EC50 [2] [nM] | IC50 (NUGC4 (P53 WT)) [µM] | EC50 ([2]; Homo sapiens, NUGC-3) [nM]
CN1CC[C@@H](Nc2cccc3c(CC(F)(F)F)c(C#CCNc4ccc(P(C)(C)=O)cc4Cl)sc23)[C@@H](F)C1 (racemic) [Example 83, (3-chloro-4-((3-(7-(((Z)-3-fluoro-1-methylpiperidin-4-yl)amino)-3-(2,2,2-trifluoroethyl)benzo[b]thiophen-2-yl)prop-2-yn-1-yl)amino)phenyl)dimethylphosphine oxide] | 1310 | 40 | 210 | 7.96 | – | – | – | –
CCN1CC[C@@H](Nc2cccc3c(CC(F)(F)F)c(C#CCNc4ccc(P(C)(C)=O)cc4OC)sc23)[C@@H](F)C1 [Example 135, (4-((3-(7-(((3S,4R)-1-ethyl-3-fluoropiperidin-4-yl)amino)-3-(2,2,2-trifluoroethyl)benzo[b]thiophen-2-yl)prop-2-yn-1-yl)amino)-3-methoxyphenyl)dimethylphosphine oxide] | 1160 | 26 | 40 | 3.62 | – | – | – | –
COc1cc(C(N)=O)ncc1NCC#Cc1sc2c(NC3CCN(C)CC3F)cccc2c1CC(F)(F)F (stereo not shown) [Example 61, 5-((3-(3-(2,2,2-trifluoroethyl)-7-(((Z)-3-fluoro-1-methylpiperidin-4-yl)amino)benzo[b]thiophen-2-yl)prop-2-yn-1-yl)amino)-4-methoxypicolinamide] | – | 102 | – | – | 4530 | 530 | 13 | –
COc1cc(P(C)(C)=O)ccc1NCC#Cc1sc2c(NC3CC4(C3)CN(C)C4)cccc2c1CC(F)(F)F [Example 189, (3-methoxy-4-((3-(7-((2-methyl-2-azaspiro[3.3]heptan-6-yl)amino)-3-(2,2,2-trifluoroethyl)benzo[b]thiophen-2-yl)prop-2-yn-1-yl)amino)phenyl)dimethylphosphine oxide] | 3640 | 45 | – | 8.67 | – | – | – | 700
COc1cc(P(C)(C)=O)ccc1NCC#Cc1sc2c(N[C@@H]3CCN(C)C[C@@H]3F)cccc2c1CC(F)(F)F [Example 115, (4-((3-(7-(((3S,4R)-3-fluoro-1-methylpiperidin-4-yl)amino)-3-(2,2,2-trifluoroethyl)benzo[b]thiophen-2-yl)prop-2-yn-1-yl)amino)-3-methoxyphenyl)dimethylphosphine oxide] | 240 | 23 | 30 | 8.58 | – | – | – | –
COc1cc(P(C)(C)=O)ccc1NCC#Cc1sc2c(NC3CCN(C)CC34CC4)cccc2c1CC(F)(F)F (stereo not shown) [Example 89, (3-methoxy-4-((3-(7-((5-methyl-5-azaspiro[2.5]octan-8-yl)amino)-3-(2,2,2-trifluoroethyl)benzo[b]thiophen-2-yl)prop-2-yn-1-yl)amino)phenyl)dimethylphosphine oxide] | 820 | 53 | – | 4.54 | – | – | – | 230
COc1cc(P(C)(C)=O)ccc1NCC#Cc1sc2c(NC3CCN(C)CC3F)cccc2c1CC(F)(F)F (stereo not shown) [Example 15, (4-((3-(7-(((Z)-3-fluoro-1-methylpiperidin-4-yl)amino)-3-(2,2,2-trifluoroethyl)benzo[b]thiophen-2-yl)prop-2-yn-1-yl)amino)-3-methoxyphenyl)dimethylphosphine oxide] | – | 34 | – | – | 360 | 310 | 6.99 | –
COc1cc(P(C)(C)=O)ccc1NCC#Cc1sc2c(N[C@@H]3CCN(C4CCCC4)C[C@@H]3F)cccc2c1CC(F)(F)F (relative stereo) [Example 104, (4-((3-(7-(((Z)-1-cyclopentyl-3-fluoropiperidin-4-yl)amino)-3-(2,2,2-trifluoroethyl)benzo[b]thiophen-2-yl)prop-2-yn-1-yl)amino)-3-methoxyphenyl)dimethylphosphine oxide] | 1380 | 82 | – | 1.75 | – | – | – | 240
COc1cc(P(C)(C)=O)ccc1NCC#Cc1sc2c(NC3[C@@H]4COC[C@H]3CN(C)C4)cccc2c1CC(F)(F)F (single isomer, unassigned) [Example 196] | 6710 | 67 | 660 | 18.6 | – | – | – | –
CNC(=O)c1ccc(NCC#Cc2sc3c(N[C@H]4CCN(C)C[C@H]4F)cccc3c2CC(F)(F)F)c(OC)c1 [Example 112, 4-((3-(7-(((3R,4S)-3-fluoro-1-methylpiperidin-4-yl)amino)-3-(2,2,2-trifluoroethyl)benzo[b]thiophen-2-yl)prop-2-yn-1-yl)amino)-3-methoxy-N-methylbenzamide] | 2090 | 135 | 270 | 7.51 | – | – | – | –
CN1CCC(Nc2cccc3c(CC(F)(F)F)c(C#CCNc4ccc(P(C)(C)=O)cc4OCF)sc23)C(F)C1 (stereo not shown) [Example 10, (4-((3-(7-(((Z)-3-fluoro-1-methylpiperidin-4-yl)amino)-3-(2,2,2-trifluoroethyl)benzo[b]thiophen-2-yl)prop-2-yn-1-yl)amino)-3-(fluoromethoxy)phenyl)dimethylphosphine oxide] | – | 56 | – | – | 1680 | 230 | 21 | –
COc1cc(P(C)(C)=O)ccc1NCC#Cc1sc2c(N[C@@H]3CCN(C4CCC4)C[C@@H]3F)cccc2c1CC(F)(F)F (racemic) [Example 103, (4-((3-(7-(((Z)-1-cyclobutyl-3-fluoropiperidin-4-yl)amino)-3-(2,2,2-trifluoroethyl)benzo[b]thiophen-2-yl)prop-2-yn-1-yl)amino)-3-methoxyphenyl)dimethylphosphine oxide] | 1280 | 91 | – | 2.65 | – | – | – | 210
CN1CC[C@H](Nc2cccc3c(CC(F)(F)F)c(C#CCNc4ccc(P(C)(C)=O)cc4C(F)F)sc23)[C@H](F)C1 [Example 225, (3-(difluoromethyl)-4-((3-(7-(((3R,4S)-3-fluoro-1-methylpiperidin-4-yl)amino)-3-(2,2,2-trifluoroethyl)benzol[b]thiophen-2-yl)prop-2-yn-1-yl)amino)phenyl)dimethylphosphine oxide] | 440 | 36 | 170 | 13.6 | – | – | – | –
CN1CC[C@@H](Nc2cccc3c(CC(F)(F)F)c(C#CCNc4ccc(P(C)(C)=O)cc4C#N)sc23)[C@@H](F)C1 [Example 211, 5-(dimethylphosphoryl)-2-((3-(7-(((3S,4R)-3-fluoro-1-methylpiperidin-4-yl)amino)-3-(2,2,2-trifluoroethyl)benzo[b]thiophen-2-yl)prop-2-yn-1-yl)amino)benzonitrile] | 1070 | 52 | 220 | 11.3 | – | – | – | –
COCC(O)CN1CC[C@@H](Nc2cccc3c(CC(F)(F)F)c(C#CCNc4ccc(S(C)(=O)=O)cc4OC)sc23)[C@@H](F)C1 (mixture of isomers) [Example 6, 1-((Z)-3-fluoro-4-((2-(3-((2-methoxy-4-(methylsulfonyl)phenyl)amino)prop-1-yn-1-yl)-3-(2,2,2-trifluoroethyl)benzo[b]thiophen-7-yl)amino)piperidin-1-yl)-3-methoxypropan-2-ol] | 1190 | 130 | – | 6.83 | – | – | – | 360
CN1CC[C@@H](Nc2cccc3c(CC(F)(F)F)c(C#CCNc4ccc(P(C)(C)=O)cc4-c4cnco4)sc23)[C@@H](F)C1 [Example 214, (4-((3-(7-(((3S,4R)-3-fluoro-1-methylpiperidin-4-yl)amino)-3-(2,2,2-trifluoroethyl)benzo[b]thiophen-2-yl)prop-2-yn-1-yl)amino)-3-(oxazol-5-yl)phenyl)dimethylphosphine oxide] | 380 | 38 | 100 | 13.9 | – | – | – | –
